According to patent publication US20030226169A1, “DNA sequences encoding antifungal proteins” (priority 1995, published 2003):
Converted amounts (≈) assume the structure as drawn. Non-standard residues stand in square brackets, D forms with d. Residues, ends and D or L forms follow the SMILES beside them. Abu = CC[C@H](N)C(=O)O

Tested on: Fusarium culmorum (IMI 180420)
Assay: Antifungal growth inhibition microplate assay (photospectrometry)
Format: cell-based
Details: for F CULMORUM IC50: Table 7 / FIG. 8: Rs-AFP1-based 12-mer split peptides; for F CULMORUM MIC: Table 7: Rs-AFP1-based 12-mer split peptides; for IC50 SMF + pH5 / IC50 SMF + pH7 / IC50 1/2 PDB: duplo; for IC50 ½ PDB: peptides single experiment; for IC50 1/2 PDB: 2 × 10^4 spores/ml; for antifungal activity compared with peptide G1 (and G2), in words: 19-mer peptides, Example 7
Experimental: The following fungal strains were used: Alternaria brassicicola (MUCL 20297), Ascophyta pisi (MUCL 30164), Botrytis cinerea (MUCL 30158), Fusarium culmorum (IMI 180420) and Verticillium dahliae (MUCL 19210).
Fungi were grown on six cereal agar plates at room temperature and under white fluorescent light except for F culmorum and V dahliae which were grown in the dark. The duration of the spore harvest varied between 10 and 25 days depending on the strain. Spores were collected as follows. Five to ten ml of sterile milli-Q water was poured into each dish and the surface of the agar was rubbed with a sterile spatula to obtain a suspension containing mycelium and spores. This suspension was filtered through a sterile glasswool-plugged funnel and the filtrate containing the spores was collected in a sterile polypropylene centrifuge tube. The A brassicicola spores were suspended in sterile 0.1 Tween 20 (Merk, 822184) due to their hydrophobic nature. The spore suspensions were then washed twice by centrifugation at 2,400×g for 15 minutes and resuspended in a small volume of steril milli-Q water. The spore density was determined in a counting chamber and then adjusted to 4×10^7 spores per ml. Aliquots of the spore suspension were transferred to sterile microtubes and an equal volume of sterile 50% glycerol (Merck, 4091) was added to each tube so that a final spore suspension of 2×10^7 spores per ml in 25% glycerol was obtained. After careful mixing of the stock, the spore suspension was transferred in 100 μl aliquots to sterile microtubes and stored at −80° C.
Antifungal activity was measured by photospectrometry as described by Broekaert et al, (1990, FEMS Microbiol Lett, 69:55-60). Tests were performed by adding 20 μl of test solution and 80 μl of a fungal spore suspension (2×10^4 spores/ml) per well in a sterile flat-bottom 96-well microtiterplate. The spore suspension was prepared by diluting the stock spore suspension ([…] in 25% glycerol) 1:1000 in half-strength potato dextrose broth. A positive growth control consisting of eight wells containing 20 μl of sterile milli-Q water and 80 μl of the fungal spore suspension was included in each test. The microtiterplates were incubated (with the lid on) in an aerated place at room temperature and under conditions of darkness for all test organisms.
After 30 minutes of incubation (when the spores are settled on the well bottom) the optical density was measured in a microplate reader (Bio Rad 3550-UV) at 595 nm. Incubation of the microtiterplates continued until the optical density of the control microculture was between 0.250 and 0.500, which took approximately 72 hours (96 hours for V dahliae). Percentage of growth inhibition (% GI) was estimated as 100 times the ratio of the corrected absorbance of the control microculture minus the corrected absorbance of the test microculture over the corrected absorbance of the control microculture at 595 nm. The corrected absorbance values equal the absorbance at 595 nm of the culture measured after 72 or 96 hours minus the absorbance at 595 nm measured after 30 minutes.
% GI=[(Acontrol−Atest/Acontrol]×100
where Acontrol=(A72/96h−A30min)control
The IC50 value is defined as the concentration that gives a 50% growth inhibition after 72 or 96 hours of incubation. The minimum inhibitory concentration (MIC) corresponds to the minimum concentration that gives 100% growth inhibition after 72 or 96 hours incubation.

[1] = Table 4 / FIG. 6: Rs-AFP2-based 12-mer split peptides, ½ PDB, the source numbers peptides by N-terminal amino acid
[2] = Table 4: Rs-AFP2-based 12-mer split peptides, ½ PDB, triplicate
[3] = ½ PDB, the source numbers peptides by N-terminal amino acid
[4] = Table 14: 18-, 19-, 20-mer peptides with C-terminal Phe49
[5] = Table 13: linear β2-β3 loop MPS peptides
[6] = Table 10: medium 1/16 PDB, one test, fungus not named in Example 7
[7] = Table 10: medium ½ PDB, one test, fungus not named in Example 7
[8] = Table 13: linear β2-β3 loop MPS peptides, SMF+ (1 mM Ca2+, 50 mM K+) pH5
[9] = Table 13: linear β2-β3 loop MPS peptides, SMF+ (1 mM Ca2+, 50 mM K+) pH7

Compound | IC50 [1] | MIC [2] | F CULMORUM IC50 [3] | F CULMORUM MIC (½ PDB) | IC50 1/2 PDB [5] | IC50 SMF + pH5 [8] | IC50 SMF + pH7 [9] | also measured
110 (CKNQCIRLEKAR; listed as Raphanus sativus) [compound 110] | 148 µg/mL | 200 µg/mL | 223 µg/mL | 400 µg/mL |  |  |  | 
113 (QCIRLEKARHGS; listed as Raphanus sativus) [compound 113] | 127 µg/mL | 200 µg/mL | 362 µg/mL | 400 µg/mL |  |  |  | 
116 (RLEKARHGSCNY; listed as Raphanus sativus) [compound 116] | 202 µg/mL | 400 µg/mL | 359 µg/mL | 400 µg/mL |  |  |  | 
CC[C@H](NC(=O)[C@H](CO)NC(=O)CNC(=O)[C@H](Cc1c[nH]cn1)NC(=O)[C@H](CCCNC(=N)N)NC(=O)[C@H](C)NC(C)=O)C(=O)N[C@@H](CC(N)=O)C(=O)N[C@@H](Cc1ccc(O)cc1)C(=O)N[C@H](C(=O)N[C@@H](Cc1ccccc1)C(=O)N1CCC[C@H]1C(=O)N[C@@H](C)C(=O)N[C@@H](Cc1c[nH]cn1)C(=O)N[C@@H](CCCCN)C(=O)N[C@@H](CC)C(=O)N[C@H](C(=O)N[C@@H](CC)C(=O)N[C@@H](Cc1ccc(O)cc1)C(=O)N[C@@H](Cc1ccccc1)C(N)=O)[C@@H](C)CC)C(C)C [Peptide 001, ARHGSBNYVFPAHKBIBYF] (Ac-ARHGS[Abu]NYVFPAHK[Abu]I[Abu]YF-NH2) |  |  |  |  |  |  |  | IC50 SMF + pH5 [4]: 102 ± 2 μg/ml; IC50 SMF + pH7 [4]: 159 ± 5 μg/ml; IC50 ½ PDB [4]: 5.6 µg/mL (≈ 2.54 µM)
CC[C@H](C)[C@H](NC(=O)[C@H](CS)NC(=O)[C@H](CCCCN)NC(=O)[C@H](Cc1c[nH]cn1)NC(=O)[C@H](C)NC(=O)[C@@H]1CCCN1C(=O)[C@H](Cc1ccccc1)NC(=O)[C@@H](NC(=O)[C@H](Cc1ccc(O)cc1)NC(=O)[C@H](CC(N)=O)NC(=O)[C@H](CS)NC(=O)[C@H](CO)NC(=O)CNC(=O)[C@H](Cc1c[nH]cn1)NC(=O)[C@H](CCCNC(=N)N)NC(=O)[C@H](C)NC(C)=O)C(C)C)C(=O)N[C@@H](CS)C(=O)N[C@@H](Cc1ccc(O)cc1)C(=O)N[C@@H](Cc1ccccc1)C(N)=O [Peptide G1, ARHGSCNYVFPAHKCICYF] (Ac-ARHGSCNYVFPAHKCICYF-NH2) |  |  |  |  | ARHGSCNYVFPAHKCICYF 17.6 ± 1.1 μg/ml |  |  | 
CC[C@H](NC(=O)[C@H](CO)NC(=O)CNC(=O)[C@H](Cc1c[nH]cn1)NC(=O)[C@H](CCCNC(=N)N)NC(=O)[C@H](C)NC(C)=O)C(=O)N[C@@H](CC(N)=O)C(=O)N[C@@H](Cc1ccc(O)cc1)C(=O)N[C@H](C(=O)N[C@@H](Cc1ccccc1)C(=O)N1CCC[C@H]1C(=O)N[C@@H](C)C(=O)N[C@@H](Cc1c[nH]cn1)C(=O)N[C@@H](CCCCN)C(=O)N[C@@H](CC)C(=O)N[C@H](C(=O)N[C@@H](CC)C(=O)N[C@@H](Cc1ccc(O)cc1)C(=O)N[C@@H](Cc1ccccc1)C(N)=O)[C@@H](C)CC)C(C)C [Peptide G2, ARHGSBNYVFPAHKBIBYF] (Ac-ARHGS[Abu]NYVFPAHK[Abu]I[Abu]YF-NH2) |  |  |  |  | 16.0 ± 1.2 µg/mL (≈ 7.26 µM) | 50.0 ± 6.0 μg/ml | >400 μg/ml | antifungal activity compared with peptide G1 (and G2), in words: does not affect antifungal activity; IC50 [6]: 10 µg/mL (≈ 4.54 µM); MIC [6]: 12.5 µg/mL (≈ 5.67 µM); IC50 [7]: 17 µg/mL (≈ 7.71 µM); MIC [7]: 25 µg/mL (≈ 11.3 µM)
CC[C@H](NC(=O)[C@H](C)NC(=O)CNC(=O)[C@H](Cc1c[nH]cn1)NC(=O)[C@H](CO)NC(=O)[C@H](C)NC(C)=O)C(=O)N[C@@H](Cc1c[nH]cn1)C(=O)N[C@@H](CCCCN)C(=O)N[C@@H](CCCNC(=N)N)C(=O)N[C@@H](CCC(=O)O)C(=O)N[C@@H](CC(N)=O)C(=O)N[C@@H](Cc1c[nH]cn1)C(=O)N[C@@H](Cc1c[nH]c2ccccc12)C(=O)N[C@@H](CCCCN)C(=O)N[C@@H](CC)C(=O)N[C@@H](Cc1ccccc1)C(=O)N[C@@H](CC)C(=O)N[C@@H](Cc1ccc(O)cc1)C(=O)N[C@@H](Cc1ccccc1)C(N)=O [Peptide J1, ASHGABHKRENHWKBFBYF] (Ac-ASHGA[Abu]HKRENHWK[Abu]F[Abu]YF-NH2) |  |  |  |  | 9.1 ± 0.6 µg/mL (≈ 3.94 µM) | 47 ± 33 μg/ml | 173.4 ± 0.2 μg/ml | antifungal activity compared with peptide G1 (and G2), in words: even more active; IC50 [6]: 5 µg/mL (≈ 2.16 µM); MIC [6]: 6.25 µg/mL (≈ 2.7 µM); IC50 [7]: 9 µg/mL (≈ 3.89 µM); MIC [7]: 12.5 µg/mL (≈ 5.41 µM); activity compared to Rs-AFP counterpart G2 (½ PDB): almost two-fold higher activity
CC[C@H](NC(=O)[C@H](CO)NC(=O)CNC(=O)[C@H](Cc1c[nH]cn1)NC(=O)[C@H](CCCNC(=N)N)NC(=O)[C@H](C)NC(=O)[C@H](CCCCN)NC(C)=O)C(=O)N[C@@H](CC(N)=O)C(=O)N[C@@H](Cc1ccc(O)cc1)C(=O)N[C@H](C(=O)N[C@@H](Cc1ccccc1)C(=O)N1CCC[C@H]1C(=O)N[C@@H](C)C(=O)N[C@@H](Cc1c[nH]cn1)C(=O)N[C@@H](CCCCN)C(=O)N[C@@H](CC)C(=O)N[C@H](C(=O)N[C@@H](CC)C(=O)N[C@@H](Cc1ccc(O)cc1)C(=O)N[C@@H](Cc1ccccc1)C(N)=O)[C@@H](C)CC)C(C)C [Peptide N1, KARHGSBNYVFPAHKBIBYF] (Ac-KARHGS[Abu]NYVFPAHK[Abu]I[Abu]YF-NH2) |  |  |  |  | 14.0 ± 6.2 µg/mL (≈ 6 µM) | 27.0 ± 7.7 μg/ml | 142.6 ± 13.6 μg/ml | 
CC[C@H](NC(=O)[C@H](C)NC(=O)CNC(=O)[C@H](Cc1c[nH]cn1)NC(=O)[C@H](C)NC(=O)[C@H](C)NC(C)=O)C(=O)N[C@@H](Cc1c[nH]cn1)C(=O)N[C@H](C(=O)N[C@@H](CCCNC(=N)N)C(=O)N[C@@H](CC(N)=O)C(=O)NCC(=O)N[C@@H](CCCCN)C(=O)N[C@@H](Cc1c[nH]cn1)C(=O)N[C@@H](CCSC)C(=O)N[C@@H](CC)C(=O)N[C@@H](Cc1ccccc1)C(=O)N[C@@H](CC)C(=O)N[C@@H](Cc1ccc(O)cc1)C(=O)N[C@@H](Cc1ccccc1)C(N)=O)C(C)C [Peptide N5, AAHGABHVRNGKHMBFBYF] (Ac-AAHGA[Abu]HVRNGKHM[Abu]F[Abu]YF-NH2) |  |  |  |  | 8.0 ± 0.4 µg/mL (≈ 3.74 µM) | 20.9 ± 1.8 μg/ml | 24.2 ± 0.2 μg/ml | activity compared to Rs-AFP counterpart G2 (½ PDB): almost two-fold higher activity
CC[C@H](NC(=O)[C@H](CO)NC(=O)CNC(=O)[C@H](Cc1c[nH]cn1)NC(=O)[C@H](CCCNC(=N)N)NC(C)=O)C(=O)N[C@@H](CC(N)=O)C(=O)N[C@@H](Cc1ccc(O)cc1)C(=O)N[C@H](C(=O)N[C@@H](Cc1ccccc1)C(=O)N1CCC[C@H]1C(=O)N[C@@H](C)C(=O)N[C@@H](Cc1c[nH]cn1)C(=O)N[C@@H](CCCCN)C(=O)N[C@@H](CC)C(=O)N[C@H](C(=O)N[C@@H](CC)C(=O)N[C@@H](Cc1ccc(O)cc1)C(=O)N[C@@H](Cc1ccccc1)C(N)=O)[C@@H](C)CC)C(C)C [Peptide P02, RHGSBNYVFPAHKBIBYF] (Ac-RHGS[Abu]NYVFPAHK[Abu]I[Abu]YF-NH2) |  |  |  |  |  |  |  | IC50 SMF + pH5 [4]: 69 ± 34 μg/ml; IC50 SMF + pH7 [4]: 133 ± 6 μg/ml; IC50 ½ PDB [4]: 8.9 µg/mL (≈ 4.17 µM)
